US6872803B1, “Peptides” (Kyowa Hakko Kogyo Co., Ltd., priority 1993, dated 2005)
Where a SMILES comes first, the peptide text is derived from it. Bridges are numbered along the chain shown (N, C = ends). [ ]: non-standard residue; d: D form. Hyp = O=C(O)[C@@H]1C[C@@H](O)CN1

Columns and labels:
trypsin = assay: in vitro; settings: pH 7.2
Protocol: To this was added trypsin (Sigma Co.) in an amount of 1/20 weight of compound (1) or (b). The resulting solution was incubated at 37° C. and sampled at intervals. The samples were analyzed by HPLC, using a reversed-phase column (YMC-Pack, ODS-AM, 150×6 mm I.D.). Elution was carried out by linear gradient elution using acetonitrile (0% to 45%) containing 0.1% TFA for 30 minutes. Absorbance at 220 nm of the eluates was measured.

α-chymotrypsin [1] = system: T1, α-chymotrypsin; assay: Stability to α-chymotrypsin; assay type: in vitro ADME; settings: α-chymotrypsin (Sigma Co.); after 6 hours; α-chymotrypsin 1/10 weight, pH 7.2, 37° C.; read-out: residual amount remaining
T1 construct: purchased Sigma Co
Protocol: (§1) To this were added α-chymotrypsin (Sigma Co.) and N^α-p-tosyl-L-lysine chloromethyl ketone (Sigma Co.) each in an amount of 1/10 weight of compound (2) or (c). […] Absorbance at 220 nm of the eluate was measured.

prolyl-endopeptidase [2] = assay: in vitro; settings: prolyl-endopeptidase (Seikagaku Corporation), pH 7.2
Protocol: (§2) The resulting mixture was incubated at 37° C. and sampled at intervals. The samples were analyzed by HPLC, using a reversed-phase column (YMC-Pack, ODS-AM, 150×6 mm I.D.). Elution was carried out by linear gradient elution using acetonitrile (0% to 45%) containing 0.1% TFA for 30 minutes. Absorbance at 220 nm of the eluate was measured.

prolyl-endopeptidase [3] = target: prolyl-endopeptidase (Elizabethkingia meningoseptica, UniProt P27028); assay: in vitro; settings: prolyl-endopeptidase in PBS(−) buffer, pH 7.2
Chain of prolyl-endopeptidase (Elizabethkingia meningoseptica, UniProt P27028) (P27028 21-705): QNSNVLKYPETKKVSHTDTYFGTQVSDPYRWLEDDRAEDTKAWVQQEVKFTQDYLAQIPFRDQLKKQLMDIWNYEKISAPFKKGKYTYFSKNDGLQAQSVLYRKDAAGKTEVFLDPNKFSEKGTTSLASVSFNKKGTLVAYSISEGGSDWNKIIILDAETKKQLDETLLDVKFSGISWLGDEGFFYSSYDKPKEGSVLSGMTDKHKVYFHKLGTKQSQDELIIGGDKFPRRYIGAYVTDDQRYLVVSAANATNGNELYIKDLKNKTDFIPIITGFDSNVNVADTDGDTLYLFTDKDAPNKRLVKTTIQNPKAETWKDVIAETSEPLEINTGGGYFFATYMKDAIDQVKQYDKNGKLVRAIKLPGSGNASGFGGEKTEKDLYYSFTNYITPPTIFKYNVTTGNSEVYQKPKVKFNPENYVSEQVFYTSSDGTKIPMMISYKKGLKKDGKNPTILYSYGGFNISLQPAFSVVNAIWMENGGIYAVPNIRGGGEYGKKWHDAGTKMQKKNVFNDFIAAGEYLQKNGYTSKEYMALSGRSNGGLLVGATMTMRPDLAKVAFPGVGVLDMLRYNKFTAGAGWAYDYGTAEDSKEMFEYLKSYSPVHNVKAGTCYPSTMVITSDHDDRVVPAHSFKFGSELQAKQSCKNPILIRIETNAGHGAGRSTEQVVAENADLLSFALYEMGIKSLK
Protocol: as §2

[4] = system: B16-F10 (mouse melanoma) cells; assay: Cell-adhesion inhibiting activity (adhesion of biotin-labeled cells to mouse fibronectin-coated plate); assay type: cell-based
Protocol: To a 96-well flat bottom plate (Sumitomo Bakelite Co.) added were […] (5 μg/ml-culture) of mouse fibronectin (produced by Telios Pharmaceutical Inc.). The plate was allowed to stand for 2 hours at room temperature to coat with mouse fibronectin. Each solution was added to the plate. Next, biotin-labeled B16-F10 (mouse melanoma) cells were added thereto and incubated at 37° C. for 30 minutes. After incubation, the non-adhered cells were removed by suction, and the adhered cells were fixed by 0.25% glutaraldehyde/PBS. The thus-fixed cells were washed with Tween-PBS, and peroxidase-labeled avidin D (Vector Co.) was added thereto and reacted for one hour at room temperature. Thereafter, the cells were washed with Tween-PBS and colored with an ABTS solution. Using NJ-2001 (Nippon Intermed Co.), the absorbance of the colored cells at OD415 was measured by colorimetry.
From the absorbance thus measured, the percentage inhibition of adhesion of the cells was obtained according to the following equation: Percentage Inhibition of Cell Adhesion=[(A−B)/A]×100 • A: absorbance in the absence of the test compound • B: absorbance in the presence of the test compound […]

[5] = system: platelet-rich plasma (PRP); assay: Inhibitory activity against agglutination of platelets stimulated by collagen; assay type: cell-based, white rabbit; settings: collagen 10 μg/ml
Protocol: The blood was collected from the heart of a white rabbit (male weight 2 kg) and mixed with 3.8% sodium citrate (1:9 3.8% sodium citrate/blood). The mixture was centrifuged at 900 r.p.m., and the supernatant was isolated as platelet-rich plasma (PRP). The remaining lower layer was centrifuged at 2500 r.p.m., and the supernatent was isolated as platelet-poor plasma (PPP). These isolates were used in the following test. The percentage of platelet agglutination was measured, using a platelet agglutination measuring device, TE-500 (produced by Elmer Optical Co.). As the standard for platelet agglutination in this test, the percentage of platelet agglutination measured in PRP only was defined as 0%, while that measured in PPP only as 100%. Test solutions each containing a test compound, compound (1) or compound (b) were prepared so as to give a final concentration of 1, 0.3 or 0.1 mM.
Ten μl of re-distilled water (as a control) or the test solution and 200 μl of PRP were put into a cuvet and pre-incubated for 3 minutes, then 10 μl of a collagen that had been prepared to have a final concentration of 10 μg/ml were added thereto, and the percentage of platelet agglutination was measured.

α-chymotrypsin [6] = target: T2, α-chymotrypsin (Bos taurus, UniProt P00766, DEL14-15/DEL147-148); assay: Stability to α-chymotrypsin; assay type: in vitro ADME; settings: α-chymotrypsin (Sigma Co.) in PBS(−) buffer; α-chymotrypsin 1/10 weight, PBS(−) pH 7.2, 37° C.
T2 construct: purchased Sigma Co
Protocol: as §1

[7] = target: T3, BK receptor derived from guinea pig ilea (Cavia porcellus, UniProt O70526); assay: BK-receptor binding inhibiting activity; settings: 3H-BK 200 pM
T3 construct: from tissue; host or cells: guinea pig ileum membrane fraction
T3 sequence (O70526 1-372): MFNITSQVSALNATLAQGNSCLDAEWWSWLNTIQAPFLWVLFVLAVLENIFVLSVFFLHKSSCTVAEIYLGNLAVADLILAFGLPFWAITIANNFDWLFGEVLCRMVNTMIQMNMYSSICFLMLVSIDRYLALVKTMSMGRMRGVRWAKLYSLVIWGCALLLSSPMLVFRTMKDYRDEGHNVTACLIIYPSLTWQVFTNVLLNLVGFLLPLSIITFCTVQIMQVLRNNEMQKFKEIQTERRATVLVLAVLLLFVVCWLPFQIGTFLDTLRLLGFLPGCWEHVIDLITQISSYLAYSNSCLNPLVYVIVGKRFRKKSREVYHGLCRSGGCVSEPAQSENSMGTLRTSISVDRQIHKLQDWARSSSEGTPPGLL
Protocol: Inhibition of the binding of BK to the BK receptor derived from guinea pig ilea
Using a polytron (Type PT10/35, Kinematica Gmbh), guinea pig ilea was homogenized in buffer (A) (containing 25 mM N-tris(hydroxymethyl)methyl-2-aminoethane-sulfonic acid-NaOH, pH 6.8) at 4° C.
The suspension thus obtained was centrifuged at 4° C. for 10 minutes at 8,000×g, and the supernatant was collected. The supernatant was further centrifuged at 4° C. for 60 minutes at 40,000×g, and the solid was collected. The solid was suspended in buffer (A), and the resulting suspension was centrifuged at 4° C. for 60 minutes at 40,000×g. The resulting solid was suspended to give a protein content of 2 mg/ml to serve as a membrane fraction. […]
^3H-BK (200 pM) was added to each of the membrane fraction solutions, to which non-labeled BK (final concentration: 1 μM) had been added, a test compound had been added or none of these had been added. […] The filter was washed with buffer (C) (comprising 50 mM Tris-HCl, 1 mM EDTA, pH 7.6), and the radioactivity of the filter was measured, using a liquid scintillation counter (LSC3500, Aroka Co.) to determine the amount of the ^3H-BK bound to the receptor and non-specifically bound 3H-BK. […]

[8] = snake venom peptides, literature; cited from earlier work

CC(C)[C@H](NC(=O)[C@H](Cc1c[nH]c2ccccc12)NC(=O)[C@@H]1CC(=O)NCC(=O)N[C@@H](CC(N)=O)C(=O)N[C@@H](Cc2c[nH]c3ccccc23)C(=O)N[C@@H](Cc2c[nH]cn2)C(=O)NCC(=O)N[C@@H]([C@@H](C)O)C(=O)N[C@@H](C)C(=O)N2CCC[C@H]2C(=O)N1)C(=O)N[C@H](C(=O)NCC(=O)N[C@@H](CCCNC(=N)N)C(=O)NCC(=O)N[C@@H](CC(=O)O)C(=O)N[C@@H](CO)C(=O)N1CCC[C@H]1C(=O)N[C@@H](C)C(=O)O)[C@@H](C)O [Compound 1] (GNWHGTAPDWVTGRGDSPA-OH; lactam N-9)
remaining at 9 h, 25 μg/ml (trypsin; trypsin (Sigma Co.)): ~60%

CC(C)[C@H](NC(=O)[C@H](C)NC(=O)[C@H](Cc1ccc(O)cc1)NC(=O)[C@@H](NC(=O)[C@H](Cc1c[nH]c2ccccc12)NC(=O)[C@@H]1CC(=O)NCC(=O)N[C@@H](CC(N)=O)C(=O)N[C@@H](Cc2c[nH]c3ccccc23)C(=O)N[C@@H](Cc2c[nH]cn2)C(=O)NCC(=O)N[C@@H]([C@@H](C)O)C(=O)N[C@@H](C)C(=O)N2CCC[C@H]2C(=O)N1)C(C)C)C(=O)N[C@H](C(=O)NCC(=O)N[C@@H](CCCNC(=N)N)C(=O)NCC(=O)N[C@@H](CC(=O)O)C(=O)N[C@@H](CO)C(=O)N1CCC[C@H]1C(=O)N[C@@H](C)C(N)=O)[C@@H](C)O [Compound 2] (GNWHGTAPDWVYAVTGRGDSPA-NH2; lactam N-9)
remaining at 6 h, 25 μg/ml (α-chymotrypsin [1]): ~95%

CSCC[C@H](NC(=O)[C@@H](NC(=O)[C@@H](NC(=O)[C@H](CS)NC(=O)[C@@H]1CCCN1C(=O)[C@H](CC(C)C)NC(=O)CNC(=O)[C@H](CCSC)NC(=O)[C@H](CO)NC(=O)[C@H](Cc1c[nH]c2ccccc12)NC(=O)[C@@H]1CC(=O)NCC(=O)N[C@@H](CC(N)=O)C(=O)N[C@@H](Cc2c[nH]c3ccccc23)C(=O)N[C@@H](Cc2c[nH]cn2)C(=O)NCC(=O)N[C@@H]([C@@H](C)O)C(=O)N[C@@H](C)C(=O)N2CCC[C@H]2C(=O)N1)C(C)C)C(C)C)C(=O)O [Compound 3] (GNWHGTAPDWSMGLPCVVM-OH; lactam N-9)
remaining at 7 h, 25 μg/ml (prolyl-endopeptidase [2]): ~60%

CC[C@H](C)[C@H](NC(=O)[C@H](CS)NC(=O)[C@@H]1CCCN1C(=O)[C@H](CC(C)C)NC(=O)CNC(=O)[C@H](CCSC)NC(=O)[C@H](CO)NC(=O)[C@H](Cc1c[nH]c2ccccc12)NC(=O)[C@@H]1CC(=O)NCC(=O)N[C@@H](CC(N)=O)C(=O)N[C@@H](Cc2c[nH]c3ccccc23)C(=O)N[C@@H](Cc2c[nH]cn2)C(=O)NCC(=O)N[C@@H]([C@@H](C)O)C(=O)N[C@@H](C)C(=O)N2CCC[C@H]2C(=O)N1)C(=O)N[C@@H](Cc1ccccc1)C(=O)N[C@@H](CCSC)C(=O)O [Compound 5] (GNWHGTAPDWSMGLPCIFM-OH; lactam N-9)
remaining at 1 h, 25 μg/ml (prolyl-endopeptidase [2]): 63%

H-SMGLPCIFM-OH [Compound f, H-Ser-Met-Gly-Leu-Pro-Cys-Ile-Phe-Met-OH]
remaining at 1 h, 25 μg/ml (prolyl-endopeptidase [2]): 12%

H-SMGLPCVVM-OH [Compound d, H-Ser-Met-Gly-Leu-Pro-Cys-Val-Val-Met-OH]
half-life at 25 μg/ml (prolyl-endopeptidase [3]): < 1 h

H-VTGRGDSPA-OH [Compound b, H-Val-Thr-Gly-Arg-Gly-Asp-Ser-Pro-Ala-OH]
IC50 ([4]; B16-F10 cells on mouse fibronectin, 37° C. 30 minutes, read-out: concentration for 50% inhibition of the adhesion of the cells (IC50)): 1130 µM
Percentage of platelet agglutination inhibition (%) ([5]; test compound 0.3 mM): 20.3%
Percentage of platelet agglutination inhibition (%) ([5]; test compound 1.0 mM): 61.2%
half-life at 25 μg/ml (trypsin; trypsin (Sigma Co.) in PBS(−) buffer): < 2 h

H-VYAVTGRGDSPA-NH2 [c, H-Val-Tyr-Ala-Val-Thr-Gly-Arg-Gly-Asp-Ser-Pro-Ala-NH2]
cell adhesion-inhibiting activity (comparison, FIG. 2) ([4]; same test, compound (2) versus compound (c)): almost the same cell adhesion-inhibiting activity
half-life at 25 μg/ml (α-chymotrypsin [6]): < 1 h

H-[dR]RP[Hyp]GFS[dF]LR-OH [Compound m]
Percentage inhibition (%) ([7]; test compound 10^−7 M): 68%
Percentage inhibition (%) ([7]; test compound 10^−8 M): 20%

albolarin
activity, times higher than the activity of Gly-Arg-Gly-Asp-Ser [8]: ~1000 times

flavoridin
activity, times higher than the activity of Gly-Arg-Gly-Asp-Ser [8]: ~1000 times

trigramin
activity, times higher than the activity of Gly-Arg-Gly-Asp-Ser [8]: ~1000 times
